Experimental data: patent US20070203212A1, “METHOD OF TREATING OSTEOARTHRITIS” (WARNER-LAMBERT COMPANY, priority 2002, published 2007)

Key:
[1] = test system: monoclonal antibody-induced arthritis; assay: Monoclonal antibody-induced arthritis (MAIA) mouse model, footpad and ankle swelling; assay type: in vivo; details: p<0.05 (FIG. 8)
Protocol: In a typical MAIA experiment, groups of four mice were injected intraperitoneally (“i.p.”) with 0.4 mL (BALB/c and DBA/1 strains) or 0.8 mL (C57BL/6, 129X1/SvJ, C3H/HeJ, and C3H/FeJ strains) with a 10 mg/mL solution of Arthrogen-CIA Monoclonal Antibody Blend (Chemicon International, Inc.). Two days later, the mice were injected i.p. with 0.2 mL of a 0.25 mg/mL solution of LPS (lipopolysaccharide form Escherichia coli (“E. coli”) strain 0111B4) in PBS. Footpad and ankle size was assessed using a Dyer Digital Caliper (#655-030-4916) on the day of mAb injection, and every two days following LPS injection.

[2] = test system: human recombinant IL-6/IL-6sR induced joint pain; assay: IL-6 with IL-6 soluble receptor induced joint pain in rat; assay type: in vivo
Protocol: It should be appreciated that in Biological Methods 1, 2, 4, and 5 below, hind paw weight bearing differentials between the paw of the limb having the control joint (in animals administered test compound vehicle only) and the paw of the limb having the contralateral test joint (in control or inducement animals administered test compound vehicle only and in treatment animals administered test compound dissolved in test compound vehicle) were determined using an incapacitance tester, model 2KG (Linton Instrumentation, Norfolk, United Kingdom). The incapacitance tester has a chamber on top with an outwardly sloping front wall that supports a rat's front limbs, and two weight sensing pads, one for each hind paw, that facilitates this determination. The hind paw weight bearing differentials were expressed in grams and calculated as follows: (the average weight in grams placed on the control limb minus the average weight in grams placed on the contralateral test limb for each of the inducement or treatment animals) minus (the average weight in grams placed on the control limb minus the average weight in grams placed on the contralateral test limb for each of the control animals). All results were statistically analyzed by comparing the average results for an induction or treatment group with the average result for its control group at the same time point using analysis of covariance (“ANCOVA”) followed by the Hoehberg's procedure and those with statistical significance had p<0.05 unless otherwise noted.
Human recombinant IL-6 (100 ng per rat; R&D Systems, Minneapolis, Minn.) was incubated at room temperature with human recombinant IL-6 soluble receptor (300 ng per rat; R&D Systems, Minneapolis, Minn.) in phosphate buffered saline (“PBS”) for 15 minutes prior to injection. Rats were anesthetized with 5% volume/volume (“v/v”) isoflurane gas and maintained with 2% v/v isoflurane gas. The anesthetized rats were given a single intra-articular injection of IL-6/WL-6sR through the infrapatellar ligament of the right knee in a volume of 50 μL. The contralateral control knee was injected with 50 μL of PBS. Administration of isoflurane gas was discontinued, and the rats became fully conscious about 5 minutes later.
Shifts in hind paw weight distribution from the right (arthritic) to the left (contralateral control) paws were utilized as an index of joint pain and as a measure of compound efficacy. An incapacitance tester (Model 2KG, Linton Instrumentation, UK) was employed for determination of hind paw weight distribution. Each data point is the mean of three, 5-second readings.
CI-1027 was dissolved in BPMC vehicle as described above. Baseline changes in hind paw weight distribution readings were determined one day prior to injection of IL-6/IL-6sR. On the day of the experiment (Day 0), a single dose of CI-1027 (10, 30 or 100 mg/kg) was given via oral gavage 3 hours prior to injection of IL-6/IL-6sR (n=10 rats per group). Changes in hind paw weight distribution were determined one, three, and six hours after injection of IL-6/IL-6sR.
In Table 4 below, data from the method of Biological Method 5 are expressed as a percent inhibition of a change in hind paw weight distribution ± the standard error of the mean. The percents inhibition were calculated as follows. Percent inhibition of a change in hind paw weight distribution [formula] wherein: ΔWC is the hind-paw weight differential between the healthy limb and the hrIL-6+ hrIL-6sR injected limb of the control animal group administered vehicle alone, as measured at time 1, 3, or 6 hours post injection; and
ΔWG is the hind-paw weight differential between the healthy limb and the hrIL-6+ hrIL-6sR injected limb of a treatment animal group as measured at time 1, 3, or 6 hours post injection.

[3] = test system: carrageenan-induced thermal hyperalgesia; assay: Carrageenan-induced thermal hyperalgesia (CITH), paw withdrawal latency; assay type: in vivo, rat; details: single oral dose 30 mg/kg on Day 1, 4 hours post dose
Protocol: Male Sprague Dawley rats (200-300 g), obtained from Charles River, were housed in groups of 2 under a 12 hour light/dark cycle with food and water ad libitum. Animals were allowed to acclimate to the test room one hour prior to testing.
Thermal hyperalgesia was assessed using the rat plantar test (apparatus from Univ. California, San Diego) following a modified method of Hargreaves et al., 1988. Rats were habituated to the apparatus, which consisted of three perspex boxes that individually housed […] on an elevated glass table. A mobile radiant heat source (halogen lamp) was located under the glass table and focused onto the hind paw. Paw withdrawal latencies (PWL) were recorded in seconds (“s”). An automatic cut off point of 22.5 s was set to prevent tissue damage. The mean of 2-3 PWL was taken at each time point for both hind paws of each animal. The apparatus was calibrated to give a PWL of approximately 10 s before carrageenan administration.
After basal PWL were determined, animals receive an intraplantar 100 μL of 10 mg/mL) into the right hind paw. Lambda carrageenan (Sigma Chemical Co.) was dissolved in isotonic saline 5 minutes prior to injecting. PWL were reassessed following the same protocol 2 hours post carrageenan (this time point represented the start of peak hyperalgesia) to ascertain that hyperalgesia had developed. 6-(5-Carboxy-5-methyl-hexyloxy)-2,2-dimethyl-hexanoic acid, calcium salt was then administered orally via oral dosing needles 2.5 hours post carrageenan injection, and PWL were taken again at 30- or 60-minute intervals post drug administration for 6 hours.
Data consisted of the mean of 2-3 reads/paw for individual animals. Group data was the compiled individual means. Percent inhibition was calculated as follows for each time point: (mean drug treated−mean control)/(mean baseline−mean control)×100.

SMILES: CC(C)(CCCCOCCCCC(C)(C)C(=O)[O-])C(=O)[O-].[Ca+2] [CI-1027, 6-(5-carboxy-5-methyl-hexyloxy)-2,2-dimethyl-hexanoic acid, calcium salt]
- change in mouse ankle joint and paw swelling ([1]; 100 mg/kg oral daily, Day 7): inhibits a change in mouse ankle joint and paw swelling
- change in mouse ankle joint and paw swelling ([1]; 200 mg/kg oral daily, Days 4, 7 and 9): inhibits a change in mouse ankle joint and paw swelling
- inhibition of change in hind paw weight distribution ([2]; 10 mg/kg PO 3 hours before IL-6/IL-6sR injection, 1 hour post injection (FIG. 6)): 53±9%
- inhibition of change in hind paw weight distribution ([2]; 10 mg/kg PO 3 hours before injection, repeat experiment, blinded readings (FIG. 7)): 63±6%
- inhibition of change in hind paw weight distribution ([2]; 30 mg/kg PO 3 hours before IL-6/IL-6sR injection, 1 hour post injection (FIG. 6)): 74±8%
- inhibition of change in hind paw weight distribution ([2]; 30 mg/kg PO 3 hours before injection, repeat experiment, blinded readings (FIG. 7)): 71±10%
- inhibition of change in hind paw weight distribution ([2]; 100 mg/kg PO 3 hours before IL-6/IL-6sR injection, 1 hour post injection (FIG. 6)): 57±15%
- change in hind paw weight distribution ([2]; 10, 30, 100 mg/kg PO, 3 and 6 hours post injection (6 and 9 hours post administration)): No significant effect
- Inhibition of Pain (% versus control), IL-6 ([2]; single oral dose 30 mg/kg on Day 1, 4 hours post dose): 71 ± 10%
- Inhibition of Pain (% versus control), CITH (paw withdrawal latency) [3]: 65 ± 20%
